From US12528802B2, “Heterocyclic compound” (Takeda Pharmaceutical Company Limited, priority 2019, dated 2026) come the findings set out here.

The assay has as its target T1, glucosylceramide synthase (Homo sapiens, UniProt Q16739).
T1 construct: made in house; host or cells: Expi293F cells (transient expression, pcDNA3.3-TOPO vector); microsome fraction used as enzyme source
T1 sequence (Q16739 1-394): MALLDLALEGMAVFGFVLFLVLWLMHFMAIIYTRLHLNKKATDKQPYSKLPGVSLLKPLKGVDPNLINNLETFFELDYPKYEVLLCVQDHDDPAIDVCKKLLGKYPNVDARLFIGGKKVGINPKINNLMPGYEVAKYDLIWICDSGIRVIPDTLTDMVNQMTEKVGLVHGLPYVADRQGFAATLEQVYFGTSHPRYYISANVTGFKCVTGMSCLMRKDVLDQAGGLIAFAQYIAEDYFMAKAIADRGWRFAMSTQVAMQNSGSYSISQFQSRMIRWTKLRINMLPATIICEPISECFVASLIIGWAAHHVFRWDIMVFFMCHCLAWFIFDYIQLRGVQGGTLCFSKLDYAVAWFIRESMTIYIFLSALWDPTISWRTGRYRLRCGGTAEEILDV
Nature of the assay: Glucosylceramide synthase (GCS) enzyme assay, microsome fraction, C8 glucosylceramide quantified by Rapidfire MS/MS. The format is biochemical. Particulars: test compound 10 μM; 1.7 μM UDP-glucose, 3 μM C8 ceramide; room temperature 60 min; read-out: GCS enzyme inhibitory rate at 10 μM (%) (% of control). In a few lines: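 Test compound, 10 μM final, was run against human GCS from transfected Expi293F microsome fractions, using substrate solution of 6 μM C8 ceramide (in DOPC liposomes) plus 3.4 μM UDP-glucose, pH 7.5 Tris buffer, 60 min, room temperature. Product C8 glucosylceramide measured by Rapidfire MS/MS against an internal standard, % inhibition referenced to no-enzyme and DMSO wells.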

On to `CN(C)C(=O)c1ccc(N2Cc3cnn(-c4ccccc4OCC(F)(F)F)c3C2)cc1` [Example 217, N,N-dimethyl-4-{1-[2-(2,2,2-trifluoroethoxy)phenyl]-4,6-dihydropyrrolo[3,4-c]pyrazol-5(1H)-yl}benzamide], for which the inhibition at 10 µM was found to be 98%.

Take `CC(C)(O)c1ccc(N2Cc3c(ncnc3-c3ccccc3OCC(F)(F)F)C2=O)cc1` [Example 200, 6-[4-(2-hydroxypropan-2-yl)phenyl]-4-[2-(2,2,2-trifluoroethoxy)phenyl]-5,6-dihydro-7H-pyrrolo[3,4-d]pyrimidin-7-one]: the inhibition at 10 µM came out at 95%. Then `COC(=O)c1ccc(N2CC3=C(OC(C)CN=C3c3ccccc3OCC(F)(F)F)C2=O)cc1` (racemic) [Example 332, rac-methyl 4-{2-methyl-8-oxo-5-[2-(2,2,2-trifluoroethoxy)phenyl]-2,3,6,8-tetrahydro-7H-pyrrolo [3,4-f][1,4]oxazepin-7-yl}benzoate], with 96%. Then `COc1ccccc1-n1ncc2c1CN(c1ccc(F)cc1)C2` [Example 183, 5-(4-fluorophenyl)-1-(2-methoxyphenyl)-1,4,5,6-tetrahydropyrrolo[3,4-c]pyrazole], with 83%; and `Cc1ccc(N2Cc3c(ccnc3-c3ccc(F)cc3OCC(F)(F)F)C2=O)cn1` [Example 89, 4-[4-fluoro-2-(2,2,2-trifluoroethoxy)phenyl]-2-(6-methylpyridin-3-yl)-2,3-dihydro-1H-pyrrolo[3,4-c]pyridin-1-one], with 96%; and `CC(C)(O)Cc1ccc(N2Cc3c(ccnc3-c3ccncc3OCC(F)(F)F)C2=O)cc1` [Example 307, 2-[4-(2-hydroxy-2-methylpropyl)phenyl]-4-[3-(2,2,2-trifluoroethoxy)pyridin-4-yl]-2,3-dihydro-1H-pyrrolo [3,4-c]pyridin-1-one], with 91%. Then `N#CC1(c2ccc(N3Cc4c(ccnc4-c4ccc(F)cc4OCC(F)F)C3=O)cc2)CC1` [Example 302, 1-(4-{4-[2-(2,2-difluoroethoxy)-4-fluorophenyl]-1-oxo-1,3-dihydro-2H-pyrrolo[3,4-c]pyridin-2-yl}phenyl) cyclopropane-1-carbonitrile], with 92%; and `O=C1C2=C(CN1c1ccc(F)cc1)C(c1ccc(F)cc1OCC(F)(F)F)=NCCN2` [Example 145, 7-(4-fluorophenyl)-5-[4-fluoro-2-(2,2,2-trifluoroethoxy)phenyl]-2,3,6,7-tetrahydropyrrolo[3,4-e][1,4]diazepin-8(1H)-one], with 63%; and `CC(C)(O)Cc1ccc(N2Cc3c(ccnc3-c3ccc(F)cc3OCC(F)(F)F)C2=O)cc1` [Example 305, 4-[4-fluoro-2-(2,2,2-trifluoroethoxy)phenyl]-2-[4-(2-hydroxy-2-methylpropyl)phenyl]-2,3-dihydro-1H-pyrrolo[3,4-c]pyridin-1-one], with 99%.

`O=C1c2ccnc(-c3ccc(F)cc3OCC(F)(F)F)c2CN1c1ccc(OC(F)F)nc1` [Example 65, 2-[6-(difluoromethoxy)pyridin-3-yl]-4-[4-fluoro-2-(2,2,2-trifluoroethoxy)phenyl]-2,3-dihydro-1H-pyrrolo[3,4-c]pyridin-1-one]: the inhibition at 10 µM stood at 95%. With `CC(C)(O)Cc1ccc(N2Cc3c(ccnc3-c3ccccc3OCC(F)(F)F)C2=O)cc1` [Example 229, 2-[4-(2-hydroxy-2-methylpropyl)phenyl]-4-[2-(2,2,2-trifluoroethoxy)phenyl]-2,3-dihydro-1H-pyrrolo[3,4-c]pyridin-1-one], the inhibition at 10 µM worked out at 99%. Then `O=C1c2ccnc(-c3ccccc3OC(F)F)c2CN1c1ccc(OC(F)F)nc1` [Example 74, 4-[2-(difluoromethoxy)phenyl]-2-[6-(difluoromethoxy)pyridin-3-yl]-2,3-dihydro-1H-pyrrolo[3,4-c]pyridin-1-one], with 91%; and `COc1cc(C(=O)N2CCC2)ccc1-c1nccc2c1CN(c1ccc(F)cc1)C2=O` [Example 120, 4-[4-(azetidine-1-carbonyl)-2-methoxyphenyl]-2-(4-fluorophenyl)-2,3-dihydro-1H-pyrrolo[3,4-c]pyridin-1-one], with 61%; and `CC(C)(O)c1ccc(N2Cc3c(ccnc3-c3c(F)cc(F)cc3OCC(F)(F)F)C2=O)cc1` [Example 320, 4-[2,4-difluoro-6-(2,2,2-trifluoroethoxy)phenyl]-2-[4-(2-hydroxypropan-2-yl)phenyl]-2,3-dihydro-1H-pyrrolo[3,4-c]pyridin-1-one], with 99%.

For `O=C1c2ccc(=O)n(-c3ccc(F)cc3OCC(F)(F)F)c2CN1c1ccc(OC(F)F)cn1` [Example 310, 6-[5-(difluoromethoxy)pyridin-2-yl]-1-[4-fluoro-2-(2,2,2-trifluoroethoxy)phenyl]-6,7-dihydro-1H-pyrrolo[3,4-b]pyridine-2,5-dione], the inhibition at 10 µM turned out to be 99%. In the case of `CS(=O)(=O)c1ccc(N2Cc3c(ccnc3-c3ccccc3OCC(F)(F)F)C2=O)nc1` [Example 268, 2-[5-(methanesulfonyl)pyridin-2-yl]-4-[2-(2,2,2-trifluoroethoxy)phenyl]-2,3-dihydro-1H-pyrrolo[3,4-c]pyridin-1-one] it was 91%; in that of `COc1ccccc1-c1nccc2c1CN(c1ccc(F)cc1)C2=O` [Example 1, 2-(4-fluorophenyl)-4-(2-methoxyphenyl)-2,3-dihydro-1H-pyrrolo[3,4-c]pyridin-1-one], 78%; in that of `O=C1c2ccnc(-c3ccccc3OCC(F)(F)F)c2CN1c1cnn(CC2(F)CC2)c1` [Example 248, 2-{1-[(1-fluorocyclopropyl)methyl]-1H-pyrazol-4-yl}-4-[2-(2,2,2-trifluoroethoxy)phenyl]-2,3-dihydro-1H-pyrrolo[3,4-c]pyridin-1-one], 99%. On to `COC(=O)c1ccc(N2CC3=C(OC[C@@H](C)N=C3c3ccccc3OCC(F)(F)F)C2=O)cc1` [Example 333, methyl 4-{(3R)-3-methyl-8-oxo-5-[2-(2,2,2-trifluoroethoxy)phenyl]-2,3,6,8-tetrahydro-7H-pyrrolo [3,4-f][1,4]oxazepin-7-yl}benzoate], for which the inhibition at 10 µM was 97%. Regarding `COc1cc(C(=O)N2CCC2)ccc1-c1nccc2c1CN(c1ccc(OC(F)F)cc1)C2=O` [Example 122, 4-[4-(azetidine-1-carbonyl)-2-methoxyphenyl]-2-[4-(difluoromethoxy)phenyl]-2,3-dihydro-1H-pyrrolo[3,4-c]pyridin-1-one], the inhibition at 10 µM came out at 95%. In the case of `O=C1c2ccnc(-c3ccc(F)cc3OC(F)F)c2CN1c1ccc(OC(F)(F)F)cn1` [Example 57, 4-[2-(difluoromethoxy)-4-fluorophenyl]-2-[5-(trifluoromethoxy)pyridin-2-yl]-2,3-dihydro-1H-pyrrolo[3,4-c]pyridin-1-one] it was 74%; in that of `Cn1cc(N2Cc3c(ccnc3-c3ccc(F)cc3OCC(F)(F)F)C2=O)cn1` [Example 81, 4-[4-fluoro-2-(2,2,2-trifluoroethoxy)phenyl]-2-(1-methyl-1H-pyrazol-4-yl)-2,3-dihydro-1H-pyrrolo[3,4-c]pyridin-1-one], 86%. In the case of `O=C1c2ccnc(-c3ccccc3OCC(F)(F)F)c2CN1c1ccc(F)cc1` [Example 42, 2-(4-fluorophenyl)-4-[2-(2,2,2-trifluoroethoxy)phenyl]-2,3-dihydro-1H-pyrrolo[3,4-c]pyridin-1-one] it was 94%.
